By IC50 is commonly meant the concentration that inhibits the measured activity by half. Lower therefore signals higher potency.

This assay has as its target LSD1 (Homo sapiens, UniProt O60341). As to the kind of experiment: in vitro demethylation of H3K4me2 peptide by GST-LSD1, mass spectrometry readout. It counts as biochemical.

Take `CC(C)(C)OC(=O)NC1CC1c1ccc(OC(=O)OC(C)(C)C)cc1` (stereo not shown) [compound 3, tert-butyl 2-(4-(tert-butoxycarbonyloxy)phenyl)cyclopropylcarbamate]: the IC50 is approximately 21.2 µM.

Values taken from publication PMC6071666 (Bioorganic & medicinal chemistry, 2018).
